Literature values, collected in patent US11324751B1 (Janssen Pharmaceutica NV, priority 2020, dated 2022).

CCCCCCCCCCCCCCCC(=O)OC1CCCn2c1nc(C)c(CCN1CCC(c3noc4cc(F)ccc34)CC1)c2=O (racemic) [paliperidone palmitate, (=)-3-[2-[4-(6-fluoro-1,2-benzisoxazol-3-yl)-1-piperidinyl]ethyl]-6,7,8,9-tetrahydro-2-methyl-4-oxo-4H-pyrido[1,2-c]pyrimidin-9-yl hexadecanoate]
water solubility: extreme low water solubility
